Experimental findings from PMC10374969, “SVCT2/SLC23A2 is a sodium-dependent urate transporter: functional properties and practical application” (The Journal of Biological Chemistry, 2023) are described below.

Common to all, as to format: cell-based
Test [1] has as its target T1, mouse Svct2 (Svct2/Slc23a2) (Mus musculus, UniProt Q9EPR4).
T1 construct: full-length, 648 aa, C-terminal EGFP tag (pEGFP-N1), transiently expressed in HEK293 cells
Put plainly: inhibition of [[…]-14C]-urate uptake into transfected HEK293 cells, mock subtracted.

The target in test [2] is T2, human SVCT2 (SVCT2/SLC23A2) (Homo sapiens, UniProt Q9UGH3).
T2 construct: full-length wild type, 650 aa, C-terminal EGFP tag (pEGFP-N1), transiently expressed in HEK293 cells
Described as above.

The target in test [3] is T2, human SVCT2 (SVCT2/SLC23A2). Put plainly: inhibition of [[…]-14C]-ascorbate uptake into transfected HEK293 cells.

Structures are written as SMILES.

T2 sequence (Q9UGH3 whole entry): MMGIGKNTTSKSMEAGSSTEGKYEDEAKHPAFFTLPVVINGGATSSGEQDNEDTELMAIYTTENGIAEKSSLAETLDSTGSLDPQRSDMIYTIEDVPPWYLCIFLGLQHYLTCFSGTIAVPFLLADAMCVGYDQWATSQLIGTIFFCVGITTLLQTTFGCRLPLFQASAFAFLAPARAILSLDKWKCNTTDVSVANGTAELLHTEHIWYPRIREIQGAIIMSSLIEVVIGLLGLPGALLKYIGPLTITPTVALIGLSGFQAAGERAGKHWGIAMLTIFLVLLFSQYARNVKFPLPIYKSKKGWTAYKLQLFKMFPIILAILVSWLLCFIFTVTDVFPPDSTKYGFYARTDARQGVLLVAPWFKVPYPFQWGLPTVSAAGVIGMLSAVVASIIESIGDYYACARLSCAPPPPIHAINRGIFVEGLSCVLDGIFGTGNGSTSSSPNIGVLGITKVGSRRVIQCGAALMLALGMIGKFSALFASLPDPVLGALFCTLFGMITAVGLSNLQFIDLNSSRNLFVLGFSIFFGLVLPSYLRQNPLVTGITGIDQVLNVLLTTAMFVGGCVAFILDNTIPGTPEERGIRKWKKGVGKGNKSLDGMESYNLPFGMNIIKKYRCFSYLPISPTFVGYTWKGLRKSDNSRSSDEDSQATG
T1 sequence (Q9EPR4 whole entry): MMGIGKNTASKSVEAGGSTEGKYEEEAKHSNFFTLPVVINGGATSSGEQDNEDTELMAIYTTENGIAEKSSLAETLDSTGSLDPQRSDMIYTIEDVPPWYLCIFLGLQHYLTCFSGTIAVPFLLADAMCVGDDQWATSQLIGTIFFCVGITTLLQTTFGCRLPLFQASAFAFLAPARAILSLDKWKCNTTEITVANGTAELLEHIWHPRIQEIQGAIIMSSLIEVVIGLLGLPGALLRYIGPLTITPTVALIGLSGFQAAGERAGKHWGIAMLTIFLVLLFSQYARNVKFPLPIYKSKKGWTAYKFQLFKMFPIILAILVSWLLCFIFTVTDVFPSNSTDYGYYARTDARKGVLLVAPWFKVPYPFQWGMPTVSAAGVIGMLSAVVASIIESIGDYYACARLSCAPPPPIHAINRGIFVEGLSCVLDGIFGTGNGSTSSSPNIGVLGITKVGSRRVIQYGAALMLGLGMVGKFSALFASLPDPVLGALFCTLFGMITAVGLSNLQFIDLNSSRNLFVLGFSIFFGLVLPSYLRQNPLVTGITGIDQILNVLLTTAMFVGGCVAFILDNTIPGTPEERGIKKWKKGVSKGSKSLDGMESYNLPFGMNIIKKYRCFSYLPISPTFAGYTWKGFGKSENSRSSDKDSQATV

What is called IC50 is the point on the concentration scale where inhibition reaches its midpoint. The low end stands for inhibition by little substance, the high end for a need for much substance. For the compound `O=C1O[C@H]([C@@H](O)CO)C(O)=C1O` [ascorbate], the IC50 was found to be 30.3 µM in test [1] and 36.6 µM in test [2].
The term inhibition denotes the percentage by which the read-out fell short of the control. A low value points to a weak effect. Compound `O=c1[nH]c(=O)c2[nH]c(=O)[nH]c2[nH]1` [urate] returned an inhibition at 500 µM in test [3] of approximately 20%.
